Measurements from patent US9321776B2, “Isochromene derivatives as phoshoinositide 3-kinases inhibitors” (CHIESI FARMACEUTICI S.p.A., priority 2013, dated 2016).
Structures can show the parent of a compound that is named as a salt.

What was measured:
Test in all cases: PI3K enzyme inhibitory activity in the cell free assay (ADP-Glo Kinase Assay)
Format in all cases: biochemical
[1] = molecular target: T1, PI3Kβ (Homo sapiens, UniProt P42338); conditions: human recombinant PI3Kβ, ATP 100 μM; read-out: PI3K beta inhibition
T1 construct: purchased Millipore Ltd (Billerica, Mass.)

[2] = molecular target: T2, PI3Kδ (Homo sapiens, UniProt O00329); conditions: human recombinant PI3Kδ, ATP 80 μM; read-out: PI3K delta inhibition
T2 construct: purchased Millipore Ltd (Billerica, Mass.)
T2 sequence (O00329 1-1044): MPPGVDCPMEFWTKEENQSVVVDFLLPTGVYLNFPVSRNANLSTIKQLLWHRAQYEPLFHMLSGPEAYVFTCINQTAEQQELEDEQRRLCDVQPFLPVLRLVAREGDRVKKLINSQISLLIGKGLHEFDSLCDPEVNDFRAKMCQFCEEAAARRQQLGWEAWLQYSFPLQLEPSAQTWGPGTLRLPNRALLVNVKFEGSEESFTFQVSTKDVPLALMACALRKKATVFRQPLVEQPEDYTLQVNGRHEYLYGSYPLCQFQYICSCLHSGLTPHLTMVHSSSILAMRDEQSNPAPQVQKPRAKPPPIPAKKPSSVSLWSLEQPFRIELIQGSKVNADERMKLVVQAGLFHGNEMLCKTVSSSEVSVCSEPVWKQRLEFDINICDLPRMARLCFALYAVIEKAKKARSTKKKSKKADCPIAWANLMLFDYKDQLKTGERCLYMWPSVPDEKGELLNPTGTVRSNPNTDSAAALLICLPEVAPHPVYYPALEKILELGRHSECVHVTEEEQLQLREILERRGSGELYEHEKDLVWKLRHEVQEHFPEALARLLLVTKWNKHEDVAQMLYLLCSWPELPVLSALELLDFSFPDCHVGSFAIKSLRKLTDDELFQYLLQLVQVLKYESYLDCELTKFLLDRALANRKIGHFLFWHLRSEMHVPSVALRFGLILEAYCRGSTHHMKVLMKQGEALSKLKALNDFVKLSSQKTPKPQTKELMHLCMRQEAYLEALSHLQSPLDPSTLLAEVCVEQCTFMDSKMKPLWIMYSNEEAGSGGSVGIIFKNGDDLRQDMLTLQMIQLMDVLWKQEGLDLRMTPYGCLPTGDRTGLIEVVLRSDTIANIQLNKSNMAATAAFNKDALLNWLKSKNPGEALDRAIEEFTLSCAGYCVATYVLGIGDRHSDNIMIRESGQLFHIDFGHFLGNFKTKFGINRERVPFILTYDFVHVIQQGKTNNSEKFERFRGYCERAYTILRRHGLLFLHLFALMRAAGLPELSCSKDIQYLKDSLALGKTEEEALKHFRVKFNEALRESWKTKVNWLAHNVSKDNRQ

[3] = molecular target: T3, PI3Kα (Homo sapiens, UniProt P42336); conditions: human recombinant PI3Kα, ATP 50 μM; read-out: PI3K alpha inhibition
T3 construct: purchased Millipore Ltd (Billerica, Mass.)

[4] = molecular target: T4, PI3Kγ (Homo sapiens, UniProt P48736); conditions: human recombinant PI3Kγ, ATP 30 μM; read-out: PI3K gamma inhibition
T4 construct: purchased Millipore Ltd (Billerica, Mass.)
T4 sequence (P48736 whole entry): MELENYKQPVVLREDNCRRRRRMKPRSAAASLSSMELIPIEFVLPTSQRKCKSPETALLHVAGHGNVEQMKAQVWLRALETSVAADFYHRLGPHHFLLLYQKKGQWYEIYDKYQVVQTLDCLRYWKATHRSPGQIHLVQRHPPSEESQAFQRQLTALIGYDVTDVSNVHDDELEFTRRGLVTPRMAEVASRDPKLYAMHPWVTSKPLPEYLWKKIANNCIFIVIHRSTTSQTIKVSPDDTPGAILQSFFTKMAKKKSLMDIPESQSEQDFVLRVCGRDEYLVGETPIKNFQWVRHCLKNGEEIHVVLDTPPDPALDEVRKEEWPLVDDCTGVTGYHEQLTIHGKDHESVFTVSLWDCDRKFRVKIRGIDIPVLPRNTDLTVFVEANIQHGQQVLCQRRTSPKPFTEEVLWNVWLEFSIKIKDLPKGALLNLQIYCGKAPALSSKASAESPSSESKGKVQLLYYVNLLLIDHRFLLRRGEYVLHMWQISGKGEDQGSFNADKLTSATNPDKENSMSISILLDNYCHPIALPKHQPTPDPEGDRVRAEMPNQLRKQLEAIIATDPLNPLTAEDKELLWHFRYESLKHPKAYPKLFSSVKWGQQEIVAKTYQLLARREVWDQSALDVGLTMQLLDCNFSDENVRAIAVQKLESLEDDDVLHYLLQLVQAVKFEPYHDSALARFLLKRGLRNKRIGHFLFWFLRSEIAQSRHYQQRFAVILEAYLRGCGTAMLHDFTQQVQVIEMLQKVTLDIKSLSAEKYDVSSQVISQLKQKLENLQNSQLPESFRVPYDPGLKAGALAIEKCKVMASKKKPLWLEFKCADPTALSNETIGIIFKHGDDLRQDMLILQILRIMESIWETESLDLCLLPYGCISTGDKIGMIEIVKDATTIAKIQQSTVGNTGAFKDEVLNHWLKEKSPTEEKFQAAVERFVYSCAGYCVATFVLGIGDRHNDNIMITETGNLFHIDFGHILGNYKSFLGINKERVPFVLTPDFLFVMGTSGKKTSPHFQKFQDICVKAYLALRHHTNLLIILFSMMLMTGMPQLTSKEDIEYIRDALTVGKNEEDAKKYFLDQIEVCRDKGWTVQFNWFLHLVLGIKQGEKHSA

T1 sequence (P42338 whole entry): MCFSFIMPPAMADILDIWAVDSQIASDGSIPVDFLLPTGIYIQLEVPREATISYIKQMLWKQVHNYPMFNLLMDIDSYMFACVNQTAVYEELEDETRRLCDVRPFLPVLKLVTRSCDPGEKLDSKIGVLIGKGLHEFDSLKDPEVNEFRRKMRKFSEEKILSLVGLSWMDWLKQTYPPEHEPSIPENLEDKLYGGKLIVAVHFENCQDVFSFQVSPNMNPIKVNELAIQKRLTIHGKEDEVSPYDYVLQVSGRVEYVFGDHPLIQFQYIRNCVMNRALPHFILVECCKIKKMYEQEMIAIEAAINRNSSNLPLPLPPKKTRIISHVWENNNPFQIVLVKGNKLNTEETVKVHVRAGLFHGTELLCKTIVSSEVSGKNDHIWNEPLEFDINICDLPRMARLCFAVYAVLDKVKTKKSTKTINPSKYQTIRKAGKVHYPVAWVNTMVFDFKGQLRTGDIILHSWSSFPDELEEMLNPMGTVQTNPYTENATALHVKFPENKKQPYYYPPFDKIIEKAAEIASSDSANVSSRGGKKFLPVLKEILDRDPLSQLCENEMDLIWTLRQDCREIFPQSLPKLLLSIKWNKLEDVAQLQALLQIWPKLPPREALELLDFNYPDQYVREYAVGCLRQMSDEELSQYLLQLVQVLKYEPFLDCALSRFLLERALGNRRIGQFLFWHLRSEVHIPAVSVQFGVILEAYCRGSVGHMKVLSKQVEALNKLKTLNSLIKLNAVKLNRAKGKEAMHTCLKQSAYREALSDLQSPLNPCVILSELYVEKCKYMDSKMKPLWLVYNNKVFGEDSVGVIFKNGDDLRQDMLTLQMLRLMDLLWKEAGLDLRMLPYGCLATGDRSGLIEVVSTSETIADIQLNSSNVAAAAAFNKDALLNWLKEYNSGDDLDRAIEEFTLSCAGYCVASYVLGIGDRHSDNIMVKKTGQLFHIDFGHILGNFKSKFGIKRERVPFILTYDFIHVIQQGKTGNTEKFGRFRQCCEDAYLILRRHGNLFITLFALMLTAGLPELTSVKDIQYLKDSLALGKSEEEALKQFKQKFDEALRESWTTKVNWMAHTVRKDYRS
T3 sequence (P42336 whole entry): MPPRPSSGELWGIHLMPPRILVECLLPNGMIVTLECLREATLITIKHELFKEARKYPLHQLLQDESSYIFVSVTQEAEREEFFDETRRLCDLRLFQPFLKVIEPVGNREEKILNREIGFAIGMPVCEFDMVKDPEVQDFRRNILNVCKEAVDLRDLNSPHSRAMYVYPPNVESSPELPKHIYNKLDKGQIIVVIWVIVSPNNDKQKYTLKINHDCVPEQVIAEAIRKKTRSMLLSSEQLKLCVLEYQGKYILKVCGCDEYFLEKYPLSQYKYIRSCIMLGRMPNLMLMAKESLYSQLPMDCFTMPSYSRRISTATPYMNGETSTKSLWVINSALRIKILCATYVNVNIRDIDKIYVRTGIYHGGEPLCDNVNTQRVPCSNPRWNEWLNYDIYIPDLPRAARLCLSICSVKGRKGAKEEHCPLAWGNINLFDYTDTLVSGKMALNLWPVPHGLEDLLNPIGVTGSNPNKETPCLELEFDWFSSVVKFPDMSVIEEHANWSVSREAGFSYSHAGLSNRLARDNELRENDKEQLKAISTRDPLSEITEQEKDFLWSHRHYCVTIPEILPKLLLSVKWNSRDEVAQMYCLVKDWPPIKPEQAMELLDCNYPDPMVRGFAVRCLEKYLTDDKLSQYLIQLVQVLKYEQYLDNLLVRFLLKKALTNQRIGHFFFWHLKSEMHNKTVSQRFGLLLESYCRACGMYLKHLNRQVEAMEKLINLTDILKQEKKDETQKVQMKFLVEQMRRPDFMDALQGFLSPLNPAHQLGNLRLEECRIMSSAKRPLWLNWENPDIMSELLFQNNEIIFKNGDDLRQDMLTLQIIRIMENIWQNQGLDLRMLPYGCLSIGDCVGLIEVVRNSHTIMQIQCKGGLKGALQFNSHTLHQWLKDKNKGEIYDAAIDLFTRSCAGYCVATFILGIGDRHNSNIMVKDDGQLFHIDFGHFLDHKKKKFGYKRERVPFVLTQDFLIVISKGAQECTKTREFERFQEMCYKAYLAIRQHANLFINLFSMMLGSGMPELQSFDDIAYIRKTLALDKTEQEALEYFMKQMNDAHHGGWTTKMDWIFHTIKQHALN

SMILES	IC50 [1]	IC50 [2]	IC50 [3]	IC50 [4]
CC(c1oc(=O)c2ccccc2c1-c1ccc(CN2CCN(C)CC2)cc1)n1nc(-c2cc(O)cc(F)c2)c2c(N)ncnc21 (stereo not drawn) [Example 139, 3-(1-(4-amino-3-(3-fluoro-5-hydroxyphenyl)-1H-pyrazolo[3,4-d]pyrimidin-1-yl)ethyl)-4-(4-((4-methylpiperazin-1-yl)methyl)phenyl)-1H-isochromen-1-one, dihydrochloride]	> 1000 nM	< 10 nM	> 1000 nM	> 1000 nM
CC(c1oc(=O)c2ccccc2c1-c1cccc(CN2CCN(C)CC2)c1)n1nc(-c2cc(O)cc(F)c2)c2c(N)ncnc21 (stereo not drawn) [Example 142, 3-(1-(4-amino-3-(3-fluoro-5-hydroxyphenyl)-1H-pyrazolo[3,4-d]pyrimidin-1-yl)ethyl)-4-(3-((4-methylpiperazin-1-yl)methyl)phenyl)-1H-isochromen-1-one]	> 1000 nM	< 10 nM	> 1000 nM	> 1000 nM
CC(c1oc(=O)c2ccccc2c1C1=CCN(C(=O)CCCN(C)C)CC1)n1nc(-c2cc(O)cc(F)c2)c2c(N)ncnc21 (stereo not drawn) [Example 146, 3-(1-(4-amino-3-(3-fluoro-5-hydroxyphenyl)-1H-pyrazolo[3,4-d]pyrimidin-1-yl)ethyl)-4-(1-(4-(dimethylamino)butanoyl)-1,2,3,6-tetrahydropyridin-4-yl)-1H-isochromen-1-one formate]	10 to 1000 nM	< 10 nM	> 1000 nM	10 to 1000 nM
CC(c1oc(=O)c2ccccc2c1C1=CCN(C(=O)CN(C)C)CC1)n1nc(-c2cc(O)cc(F)c2)c2c(N)ncnc21 (stereo not drawn) [Example 147, 3-(1-(4-amino-3-(3-fluoro-5-hydroxyphenyl)-1H-pyrazolo[3,4-d]pyrimidin-1-yl)ethyl)-4-(1-(2-(dimethylamino)acetyl)-1,2,3,6-tetrahydropyridin-4-yl)-1H-isochromen-1-one formate]	10 to 1000 nM	< 10 nM	10 to 1000 nM	10 to 1000 nM
CC(c1oc(=O)c2ccccc2c1C1=CCN(C(=O)C2CCN(C)CC2)CC1)n1nc(-c2cc(O)cc(F)c2)c2c(N)ncnc21 (stereo not drawn) [Example 148, 3-(1-(4-amino-3-(3-fluoro-5-hydroxyphenyl)-1H-pyrazolo[3,4-d]pyrimidin-1-yl)ethyl)-4-(1-(1-methylpiperidine-4-carbonyl)-1,2,3,6-tetrahydropyridin-4-yl)-1H-isochromen-1-one formate]	10 to 1000 nM	< 10 nM	> 1000 nM	10 to 1000 nM
CC(c1oc(=O)c2ccccc2c1C1=CCN(C(=O)C2CN(C)C2)CC1)n1nc(-c2cc(O)cc(F)c2)c2c(N)ncnc21 (stereo not drawn) [Example 151, 3-(1-(4-amino-3-(3-fluoro-5-hydroxyphenyl)-1H-pyrazolo[3,4-d]pyrimidin-1-yl)ethyl)-4-(1-(1-methylazetidine-3-carbonyl)-1,2,3,6-tetrahydropyridin-4-yl)-1H-isochromen-1-one formate]	10 to 1000 nM	10 to 1000 nM	> 1000 nM	10 to 1000 nM
CC(c1oc(=O)c2ccccc2c1C1=CCNCC1)n1nc(-c2cc(O)cc(Cl)c2)c2c(N)ncnc21 (stereo not drawn) [Example 152, 3-(1-(4-amino-3-(3-chloro-5-hydroxyphenyl)-1H-pyrazolo[3,4-d]pyrimidin-1-yl)ethyl)-4-(1,2,3,6-tetrahydropyridin-4-yl)-1H-isochromen-1-one formate]	10 to 1000 nM	< 10 nM	10 to 1000 nM	10 to 1000 nM

Results, then the compound that gave them:

IC50 [1]	IC50 [2]	IC50 [3]	IC50 [4]	SMILES
10 to 1000 nM	< 10 nM	10 to 1000 nM	10 to 1000 nM	CC(c1oc(=O)c2ccccc2c1CN1CCOCC1)n1nc(-c2cc(O)cc(F)c2)c2c(N)ncnc21 (stereo not drawn) [Example 130, 3-(1-(4-amino-3-(3-fluoro-5-hydroxyphenyl)-1H-pyrazolo[3,4-d]pyrimidin-1-yl)ethyl)-4-(morpholinomethyl)-1H-isochromen-1-one]
10 to 1000 nM	< 10 nM	10 to 1000 nM	10 to 1000 nM	CC(c1oc(=O)c2ccccc2c1-c1ccc(CN2CCN(C)CC2)s1)n1nc(-c2cc(O)cc(F)c2)c2c(N)ncnc21 (stereo not drawn) [Example 135, 3-(1-(4-amino-3-(3-fluoro-5-hydroxyphenyl)-1H-pyrazolo[3,4-d]pyrimidin-1-yl)ethyl)-4-(5-((4-methyl)piperazin-1-yl)methyl)thiophen-2-yl)-1H-isochromen-1-one, dihydrochloride]
10 to 1000 nM	< 10 nM	> 1000 nM	> 1000 nM	CC(c1oc(=O)c2ccccc2c1-c1ccc(CCCN(C)C)s1)n1nc(-c2cc(O)cc(F)c2)c2c(N)ncnc21 (stereo not drawn) [Example 136, 3-(1-(4-amino-3-(3-fluoro-5-hydroxyphenyl)-1H-pyrazolo[3,4-d]pyrimidin-1-yl)ethyl)-4-(5-(3-(dimethylamino)propyl)thiophen-2-yl)-1H-isochromen-1-one, Formate]
10 to 1000 nM	< 10 nM	> 1000 nM	10 to 1000 nM	CC(c1oc(=O)c2ccccc2c1-c1cccc(CCCN(C)C)c1)n1nc(-c2cc(O)cc(F)c2)c2c(N)ncnc21 (stereo not drawn) [Example 137, 3-(1-(4-amino-3-(3-fluoro-5-hydroxyphenyl)-1H-pyrazolo[3,4-d]pyrimidin-1-yl)ethyl)-4-(3-(3-(dimethylamino)propyl)phenyl)-1H-isochromen-1-one, Formic Acid]
10 to 1000 nM	< 10 nM	> 1000 nM	> 1000 nM	CC(c1oc(=O)c2ccccc2c1-c1ccc(CN2CCCC2)cc1)n1nc(-c2cc(O)cc(F)c2)c2c(N)ncnc21 (stereo not drawn) [Example 140, 3-(1-(4-amino-3-(3-fluoro-5-hydroxyphenyl)-1H-pyrazolo[3,4-d]pyrimidin-1-yl)ethyl)-4-(4-(pyrrolidin-1-ylmethyl)phenyl)-1H-isochromen-1-one, hydrochloride]
10 to 1000 nM	< 10 nM	> 1000 nM	> 1000 nM	CC(c1oc(=O)c2ccccc2c1-c1ccc(CN2CCCCC2)cc1)n1nc(-c2cc(O)cc(F)c2)c2c(N)ncnc21 (stereo not drawn) [Example 141, 3-(1-(4-amino-3-(3-fluoro-5-hydroxyphenyl)-1H-pyrazolo[3,4-d]pyrimidin-1-yl)ethyl)-4-(4-(piperidin-1-ylmethyl)phenyl)-1H-isochromen-1-one, hydrochloride]
10 to 1000 nM	< 10 nM	> 1000 nM	10 to 1000 nM	CC(c1oc(=O)c2ccccc2c1C1=CC(C)(C)NC(C)(C)C1)n1nc(-c2cc(O)cc(F)c2)c2c(N)ncnc21 (stereo not drawn) [Example 144, 3-(1-(4-amino-3-(3-fluoro-5-hydroxyphenyl)-1H-pyrazolo[3,4-d]pyrimidin-1-yl)ethyl)-4-(2,2,6,6-tetramethyl-1,2,3,6-tetrahydropyridin-4-yl)-1H-isochromen-1-one hydrochloride]
10 to 1000 nM	< 10 nM	10 to 1000 nM	10 to 1000 nM	CC(c1oc(=O)c2ccccc2c1C1=CC(C)(C)NC(C)(C)C1)n1nc(-c2cncc(O)c2)c2c(N)ncnc21 (stereo not drawn) [Example 145, 3-(1-(4-amino-3-(5-hydroxypyridin-3-yl)-1H-pyrazolo[3,4-d]pyrimidin-1-yl)ethyl)-4-(2,2,6,6-tetramethyl-1,2,3,6-tetrahydropyridin-4-yl)-1H-isochromen-1-one dihydrochloride]
